Test results taken from a melting point compilation (Tetko et al.; mined from patent text by program, amines drawn as free bases though some values may be those of a salt).

Structure (SMILES)	melting point
C=C1CC2C(CCC3(C)C2CCC3(OC(C)=O)C(C)=O)C2(C)C1=CC(=O)CC2CCl (centres undefined)	190 to 192 °C
CCC(CC)N(Cc1ccc(C(=O)O)cc1)S(=O)(=O)c1ccc(OC)cc1	86 to 87 °C
NS(=O)(=O)c1ccc(C=Nc2ccc(SSc3ccc(N=Cc4ccc(S(N)(=O)=O)cc4)cc3)cc2)cc1	200 to 230 °C
CC(C)(O)c1cc(C(C)(C)O)cc(C(C)(C)O)c1	148 to 150 °C
CNC(=O)c1ccccc1Nc1nc(Nc2ccc3c(c2)CCN(C(C)C)CC3)ncc1Cl	140 to 158 °C
O=C1c2c(Cl)cccc2-n2cnc(-c3nc(C4CC4)no3)c2[C@@H]2CCN12	140 to 142 °C
Cc1c(C)n(C2CC2)c2c(OCc3ccccc3)nncc12	121 to 122 °C
CCc1nn(-c2c(Cl)cc(C(F)(F)F)cc2Cl)c(CC)c1Cc1c(OC)ccc2ccccc12	96 to 98 °C
CCCc1cc(N2CCC(NCC(O)c3ccnc4ccccc34)CC2)nc2sc(C(N)=O)c(N)c12 (centres undefined)	170 to 172 °C
O=C(C=Cc1ccc(C(F)(F)F)cc1)N1CCc2c([nH]c3ccccc23)C1c1ccc2c(c1)OCO2 (centres undefined)	233 °C
CSc1cc(N)ccc1[N+](=O)[O-]	178 to 182 °C
CCCCCCCCc1cnc(-c2ccc(F)cc2)nc1	23.5 °C
O=Cc1cc(C(=O)c2ccccc2)ccc1[N+](=O)[O-]	96.7 °C
O=C(Cn1nnc2ccccc21)Nc1ccc(-n2nc(C3CC3)cc2C2CC2)c(F)c1	201 to 203 °C
CCCOc1ccc(NC=C(C(=O)OCC)C(=O)OCC)cc1C1=NC(=O)C2=NN=NC2=N1	226 to 227 °C
FC(F)(F)c1cccc(N2CCN(c3nc4cccc5c4n3CCC5)CC2)c1	158 to 159 °C
COC(=O)c1cn(CC(F)(F)F)c2c(C)cc(F)cc2c1=O	168 to 171 °C
O=C(CNC(=O)OCc1ccc([N+](=O)[O-])cc1)Nc1ccc(C(=O)OCI)cc1	162 to 164 °C
O=C(Nc1ccccn1)c1c(C(F)(F)F)nc(-c2ccccc2)c(-c2ccccc2)c1O	208 to 210 °C
C[C@H]1C(=O)N2[C@H](c3ccc4c(c3)OCO4)c3[nH]c4ccccc4c3C[C@@H]2C(=O)N1C	219 to 220 °C
Fc1ccc(/C=C/c2cc(F)cc(F)c2)cc1	47 °C

Structure (SMILES)	melting point
CS(=O)(=O)c1ccc(-c2nn(CC3CC3)c(=O)cc2-c2ccc(Cl)cc2)cc1	140 °C
CCOC(=O)C(C)(C)Oc1ccc2c(-c3ccc(Cl)cc3)noc2c1	70 °C
C/C(=C\c1ccc(OCCS(C)=O)cc1)c1ccc2c(c1)C(C)(C)CCC2(C)C (centres undefined)	134 to 136 °C
N#CCCn1cccc1C1=CC(=O)c2ncccc2C1=O	166 to 167 °C
O=C(O)c1cc(-c2cccc(C(F)(F)F)c2)ns1	162 to 164 °C
CCOc1cn(C)c2nc3cc(F)c(F)cc3cc2c1=O	> 270 °C
O=C1Nc2ccc(F)c(Cl)c2C(=O)N2CCC[C@@H]12	217 to 219 °C
O=[N+]([O-])c1ccccc1S(=O)(=O)NOCc1ccccc1	148 to 151 °C
COC(=O)CNC(=O)c1ccc(Cl)c(Cl)c1	133 to 134 °C
CS(=O)(=O)N1CCSc2cccc(Cl)c2C1	85 to 86 °C
Cc1cnc(N2CCc3ccccc3CC2)c([N+](=O)[O-])c1	87 to 88 °C
O=C(NCc1ccc(Cl)cc1)c1cnc2c(F)c(Oc3ccc(CO)cc3)c(F)cc2c1O	235 to 240 °C
NCc1cccc(C2CCN(c3nc4c(cc3F)c(=O)c(C(=O)O)cn4C3CC3)C2)c1 (centres undefined)	274 to 276 °C
O=[N+]([O-])c1c(NCCCO)cc(Cl)cc1NCCCO	127 °C
C=CCO/N=C(\C(=O)OC)c1csc(N)n1	133 to 134 °C
CCCCCCCCCCCCC(Oc1ccc(NS(=O)(=O)CCCC)cc1)C(=O)O (centres undefined)	80 to 82 °C
CSC(=S)C1(c2ccc3ccccc3n2)CCCS1 (centres undefined)	72 °C
O=C1CC(c2ccc([N+](=O)[O-])cc2)=Nc2cccc(C(F)(F)F)c21	> 260 °C
COc1cccc(C=Cc2nc3c(s2)N(C(C)=O)CCC3)c1OC	185 to 187 °C
NS(=O)(=O)c1ccc(-c2cnn(CC(F)(F)F)c(=O)c2-c2ccc(Cl)c(F)c2)cc1	180 to 183 °C
CCOCc1nc2c(NC(=O)c3ccccc3)nc3ccccc3c2n1CC(C)(C)NS(C)(=O)=O	80 to 83 °C

Structure (SMILES)	melting point
Cc1ccc(Oc2cccc(CC(=O)O)c2N)cc1C	90 to 92 °C
O=Cc1cn(Cc2ccc(OCc3ccccc3)cc2)nc1OCc1ccc(OCc2ccccc2)cc1	138 to 139 °C
CC1(C)CCC(C)(C)c2c(OS(=O)(=O)C(F)(F)F)cc(-c3ccccc3)cc21	110 °C
CC(C)(SC(=S)c1ccccc1)c1ccc(Cl)cc1	77 to 78 °C
O=[N+]([O-])c1ccc2c(c1)CCNCC2	53 to 56 °C
CC(C)S(=O)(=O)c1ccc2c(c1)nc(CC1CCCC1)n2CC1CC1	137 °C
COc1ccc(Nc2cc(-c3ccccc3)nc(NC3CCC(O)CC3)n2)cc1Cl (centres undefined)	293 to 295 °C
Cc1cccc(NS(=O)(=O)c2ccc(OCc3nc(-c4ccccc4)oc3C)cc2)c1C(=O)O	167 to 170 °C
O=C(O)CN1C(=O)c2ccc(C(=O)O)cc2C1=O	262 to 265 °C
N#Cc1cc(Br)c(O)c(Cc2cc(F)cc(Cc3cc(C#N)cc(Br)c3O)c2O)c1	240 °C
COC(=O)c1ccc2c(c(C)nn2C)c1C(=O)NC(C)(C(N)=O)C(C)C (centres undefined)	221 to 222 °C
CCS(=O)(=O)NCc1ccc2[nH]cc(CCCN3CCN(c4ncncc4OC)C(C)C3)c2c1 (centres undefined)	202 to 210 °C
CNc1c([N+](=O)[O-])ccc2c1OC(COS(=O)(=O)c1ccc(C)cc1)CO2 (centres undefined)	149 to 151 °C
O=S(=O)(Nc1ccc(Oc2cccc3cccnc23)c(Cl)c1)c1cccc(C(F)(F)F)c1	> 245 °C
COC(=O)c1cc2cc(OC(F)F)ccc2nc1C(=O)OC	84 to 85 °C
O=C1OC(CCO)C(O)=C1OCc1ccccc1 (centres undefined)	98 to 99 °C
COCCCn1c(COc2ccccc2)nc2c(N)nc3ccccc3c21	152 °C
CC(C)(C)OC(=O)N[C@@H]1C(=O)N2C(C(=O)OC(c3ccccc3)c3ccccc3)=C(/C=C3\CCN(CC4CC4)C3=O)CS[C@H]12	175 to 180 °C
FC(F)(F)c1ccc(-c2cc(Oc3ccc4cccnc4c3)nnc2Oc2ccc3cccnc3c2)cc1	158 to 162 °C
CCn1c2s[nH]c(=O)c2c(=O)c2cc(F)c(F)c(OC(F)F)c21	211 to 213 °C
CC#CCOc1ccc(S(=O)(=O)C2(C(=O)NO)CCCN(Cc3ccc(Cl)cc3)C2)cc1 (centres undefined)	124 °C

Continued, values first:

melting point	Structure (SMILES)
141 to 142 °C	C/C=C\Cn1c(Oc2cc(C)cc(C)c2)c(C(C)C)c(=O)[nH]c1=O
147 to 149 °C	Nc1c(F)c(-c2ccc(C(F)(F)F)nc2)nc(C=O)c1Cl
132 to 134 °C	O=C(NCCCn1cncn1)c1ccc(I)cc1
142 °C	COc1ccc(CN(C)CCCCc2ccc(NC(=O)c3cccc4c(=O)c5ccccc5n(C)c34)cc2)cc1OC
120 °C	O=C(O)c1nccc(OCc2ccccc2)c1OCc1ccccc1
99 to 100 °C	CCOc1nn(-c2ccc(C(F)(F)F)cn2)cc1CCCOc1cc(CCC(=O)O)cc(OC)c1
141 °C	COc1ccc(S(=O)(=O)N(CC(N)=O)c2ccc(C)cc2Cc2ccccc2Cl)cc1OC
235 to 243 °C	CC1(C)CC(Nc2nc(NC3CC(C)(C)NC(C)(C)C3)nc(N(C3CC(C)(C)NC(C)(C)C3)C3CC(C)(C)NC(C)(C)C3)n2)CC(C)(C)N1
168 to 170 °C	CCOC(=O)C1=C(COCc2nnc(CN(C)C)s2)NC(C)=C(C(=O)OC)C1c1cccc(Cl)c1Cl (centres undefined)
73 to 75 °C	CC(C)(CF)C(=O)C(Br)Oc1ccc(Cl)cc1 (centres undefined)
260 to 262 °C	Oc1ccc(-c2nc3cc(O)c(Cl)cc3o2)cc1
194 °C	CC(=O)Nc1nc(C)c(S(=O)(=O)NC(C)(C)CO)s1
173 to 175 °C	O=c1[nH]c2ccccc2c(=O)n1CCCN1CCC(OC(c2ccccc2)c2ccccc2)CC1
111 to 112 °C	C#Cc1ccc2cc(OC)ccc2c1
191 to 193 °C	Cc1ccc(Oc2c(N3C(C)CCC3C)cc(C(=O)O)cc2S(N)(=O)=O)cc1 (centres undefined)
> 300 °C	O=c1[nH]c2cc([N+](=O)[O-])ccc2cc1P(=O)(O)O

melting point	Structure (SMILES)
105 to 107 °C	CCCc1nn(C)c2c(=O)n(CCNc3ccc(SC(C)(C)C(=O)OCC)cc3)c(CC)nc12
200 to 201 °C	CCCCCCCCCCOc1ccc(-c2nc3ccc(C(=O)O)cc3o2)cc1C12CC3CC(CC(C3)C1)C2
60 to 61 °C	Cc1c(C)c2c(c(C)c1N)CC(C)(CN1CCCCC1)O2 (centres undefined)
147 to 149 °C	COc1cccc(-c2nn(Cc3ccccc3)c(N)c2C#N)c1
49 to 51 °C	CC(=C(Cl)Cl)c1ccccc1Nc1ccccc1C
218 to 220 °C	O=C1CCC(N2Cc3c(OCc4nc(CN5CCOCC5)cs4)cccc3C2=O)C(=O)N1 (centres undefined)
42 to 46 °C	CCCc1ccc(-n2nc(Cl)cc2-c2ccc(S(C)(=O)=O)cc2)cc1[N+](=O)[O-]
105 to 106 °C	NC(=O)[C@@H]1C[C@@H]2C[C@@H]2N1C(=O)[C@@H](NC(=O)OCc1ccccc1)C12CC3CC(CC(O)(C3)C1)C2
184 to 190 °C	CC(C)(C)OC(=O)c1nc(-c2cccc3ccccc23)[nH]c1-c1ccncc1
71 to 73 °C	COC(=O)c1cc(N)c(C(C)(C)C)c(N)c1
151 to 153 °C	CNc1nc(-c2cccc(NC(=O)c3ccnc(Cl)c3)c2)c2cc(OC)c(OC)cc2n1
201 to 203 °C	COc1ccc(CSc2cc(C(=O)Nc3ccc(C#N)cc3)ccn2)cc1
131 °C	C=CC(CCc1ccccc1)NC(=O)c1ccccc1 (centres undefined)
131 to 132 °C	COc1cccc2cnc(C)nc12
120 to 126 °C	NC(=O)c1ccc(CN2CCN(C(=O)c3cc(C(F)(F)F)cc(C(F)(F)F)c3)[C@H](Cc3c[nH]c4ccccc34)C2)cc1
